Test results: patent US6716574B2, “Osp-C derived peptide fragments” (Dako A/S, priority 1996, dated 2004)
Square brackets hold non-standard residues; d marks the D form. Thz = O=C(O)[C@@H]1CSCN1

Tested on: polyclonal anti-OspC antibodies (IgM) in sera from LB patients
Experiment: Inhibition of binding of anti-OspC antibodies in patient sera to rOspC-coated ELISA plates
Design: species or system human
Settings: for number of sera in which binding to rOspCfl was inhibited: of 5 antisera
Description: Therefore, a set of experiments have been carried out where the ability have been tested of a number of analogues of the C-terminus of SEQ ID NO: 3 to inhibit the immune reactivity between rOspCfl and selected antisera in an ELISA. More specifically, the ability of the various analogues to inhibit the binding of polyclonal anti-OspC antibodies in solution was examined in sera from LB patients to rOspC-coated ELISA plates.
The immunoreactivity to OspC was specified by using six randomly selected NB sera with an OD>1.5 in the IgM rOspC ELISA. The respective serum dilutions were determined, based on a serum dilution curve obtained in the IgM rOspC ELISA, for each of the six sera. The highest dilution, which still achieved the maximal OD value was used. 5 sera were diluted 1:200, and one serum 1:1000. The sera were diluted in the buffer used for the IgM rOspC ELISAs.
The affinity of the OspC derivatives was measured by incubation of each of the six sera with the respective OspC derivatives at 10 different dilutions (covering a two-fold range) overnight at 4° C. The rOspC ELISA was then performed as described previously, in order to determine the effect of the IgM binding to OspC.

Q: How did the “ability to inhibit binding between rOspCfl and the 5 antisera” value turn out when “9-arg: variant of SEQ ID NO: 1 in which 9-lys was substituted with 9-arg (PVVAESPKRP; FRAGMENT TYPE C-terminal; STRAIN DK6, INDIVIDUAL ISOLATE BN1068; listed as Borrelia garinii)” was run?
A: no effect

Q: Which “ability to inhibit binding between rOspCfl and the 5 antisera” value does the source give for “NH2-AVVAESPKKP-COOH (H-AVVAESPKKP-OH) [SEQ ID NO: 32]” here?
A: capable of inhibiting binding

Q: Which “ability to inhibit binding between rOspCfl and the 5 antisera” value does the source give for “NH2-PAVAESPKKP-COOH (H-PAVAESPKKP-OH) [SEQ ID NO: 31]” here?
A: capable of inhibiting binding

Q: For “NH2-PKKP-COOH (H-PKKP-OH) [SEQ ID NO: 22]”, which “patient sera in which binding between rOspCfl and antibodies was inhibited” value (six NB sera with OD>1.5 in the IgM rOspC ELISA) is on record?
A: one single serum

Q: What does the source list for “NH2-PPPPESPKKP-COOH (H-PPPPESPKKP-OH) [SEQ ID NO: 39]”?
A: inhibition (Serum 1): 70% inhibition; inhibition (Serum 2): 100% inhibition; inhibition (Serum 3): 100% inhibition; inhibition (Serum 4): 0% inhibition; inhibition (Serum 5): 40% inhibition

Q: For “NH2-PVAAESPKKP-COOH (H-PVAAESPKKP-OH) [SEQ ID NO: 30]”, which “ability to inhibit binding between rOspCfl and the 5 antisera” value is on record?
A: capable of inhibiting binding

Q: How did the “ability to inhibit binding between rOspCfl and the 5 antisera” value turn out when “NH2-PVVAASPKKP-COOH (H-PVVAASPKKP-OH) [SEQ ID NO: 28]” was run?
A: capable of inhibiting binding

Q: Which “ability to inhibit binding between rOspCfl and the 5 antisera” value does the source give for “NH2-PVVAEAPKKP-COOH (H-PVVAEAPKKP-OH) [SEQ ID NO: 27]” here?
A: capable of inhibiting binding

Q: With “NH2-PVVAES*KKP-COOH (H-PVVAES[Thz]KKP-OH; SMILES CC(C)[C@H](NC(=O)[C@@H]1CCCN1)C(=O)N[C@H](C(=O)N[C@@H](C)C(=O)N[C@@H](CCC(=O)O)C(=O)N[C@@H](CO)C(=O)N1CSC[C@H]1C(=O)N[C@@H](CCCCN)C(=O)N[C@@H](CCCCN)C(=O)N1CCC[C@H]1C(=O)O)C(C)C) [* designates L-thiazolidine-4-carboxylic acid]” as the substance, how does the “number of sera in which binding to rOspCfl was inhibited” value (from here on “number … to rOspCfl was inhibited”) read?
A: 5 sera

Q: Which “number … to rOspCfl was inhibited” value does the source give for “NH2-PVVAESAKKP-COOH (H-PVVAESAKKP-OH) [SEQ ID NO: 26]” here?
A: 1 sera

Q: Which “number … to rOspCfl was inhibited” value does the source give for “NH2-PVVAESPAKP-COOH (H-PVVAESPAKP-OH) [SEQ ID NO: 25]” here?
A: 3 sera

Q: Which “number … to rOspCfl was inhibited” value does the source give for “NH2-PVVAESPKAP-COOH (H-PVVAESPKAP-OH) [SEQ ID NO: 24]” here?
A: 1 sera

Q: Which “number … to rOspCfl was inhibited” value does the source give for “NH2-PVVAESPKKA-COOH (H-PVVAESPKKA-OH) [SEQ ID NO: 23]” here?
A: 0 sera

Q: For “NH2-PVVAESPKKP-CONH2 (H-PVVAESPKKP-NH2) [SEQ ID NO: 33]”, which “ability to inhibit binding between rOspCfl and the 5 antisera” value is on record?
A: incapable of inhibiting binding

Q: “NH2-PVVAESPKNP-COOH (H-PVVAESPKNP-OH) [SEQ ID NO: 38]” was tested. Which inhibition (Serum 1) did it give?
A: 50% inhibition

Q: And the inhibition (Serum 2)?
A: 0% inhibition

Q: And the inhibition (Serum 3)?
A: 0% inhibition

Q: What about the inhibition (Serum 4) of the same substance?
A: 0% inhibition

Q: What about the inhibition (Serum 5) of the same substance?
A: 0% inhibition

Q: “NH2-PVVFESPKKP-COOH (H-PVVFESPKKP-OH) [SEQ ID NO: 29]” was tested. Which “ability to inhibit binding between rOspCfl and the 5 antisera” value did it give?
A: capable of inhibiting binding

Q: For “NH2-PVVPESPKKP-COOH (H-PVVPESPKKP-OH) [SEQ ID NO: 37]”, which inhibition (Serum 1) is on record?
A: 70% inhibition

Q: What about the inhibition (Serum 2) of the same substance?
A: 100% inhibition

Q: What about the inhibition (Serum 3) of the same substance?
A: 100% inhibition

Q: What about the inhibition (Serum 4) of the same substance?
A: 0% inhibition

Q: What about the inhibition (Serum 5) of the same substance?
A: 40% inhibition
